Data published in patent publication US7094909B2, “HIV protease inhibitors, compositions containing the same, their pharmaceutical uses and materials for their synthesis” (priority 2001, dated 2006).

Experiments:
[1] = biological target: T1, HIV-1 protease (Q7S mutant form) (Human immunodeficiency virus type 1 group M subtype B, UniProt P04585, Q495S); assay: HIV-1 Protease RET assay; type: biochemical; details: Ave. Ki (nM), RET assay, Q7S enzyme, Morrison tight binding fit
T1 construct: made in house
Procedure, shortened: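 Q7S HIV-1 protease, refolded from urea, 2 nM active dimer with 5 μM EDANS/DABCYL peptide cleaved at Tyr-Pro; fluorescence 340/490 nm. 12 min at 37 °C in 0.1M sodium acetate pH 4.8, 1M NaCl, 10% DMSO. Ki from Morrison tight-binding fit.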

[2] = system: HIV-1 (HIV-1 RF, HIV-1 NL4-3) in CEM-SS / MT-2 cells; assay: Cytopathic effect (CPE) inhibition assay (XTT/MTT dye reduction); type: cell-based; details: Human immunodeficiency virus 1, NL43; read-out: Ave CPE EC50
Procedure, shortened: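 CEM-SS or MT-2 cells were infected with HIV-1 RF or NL4-3 (moi 0.025–0.819) and plated at 2×10^4 cells/well with half-log compound dilutions for 6 days. Viability was read by XTT formazan at 450 nm after 4 h. EC50 restores formazan to 50% of uninfected untreated cells, CC50 halves it in uninfected cells, and TI = CC50/EC50.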

[3] = system: HIV-1 NL4-3 or HIV-1 NL4-3(I84V/L90M); assay: Susceptibility assay, p24 ELISA in infected MT-2 cells; type: cell-based; details: Human immunodeficiency virus 1, NL43, MT2, read-out: EC50 or IC50 (mM), values without asterisk (EC50)
Experimental: T-cell lines, CEM-SS, and MT-2, and viruses HIV-1 RF and HIV-1 NL4-3 (pNL4-3) were obtained from the National Institutes of Health (AIDS Research and Reference Reagent Program, Bethesda, Md.).
Compounds were tested in phenotypic susceptibility assays at Virologic, Inc., (See Petropoulos C. J., Parkin N. T., Limoli K. L., Lie Y. S., Wrin T., Huang W., Tian H., Smith D., Winslow G. A., Capon D J, Whitcomb J M. 2000, “A novel phenotypic drug susceptibility assay for human immunodeficiency virus type 1,” Antimicrob Agents Chemother 44(4):920–928) or using the assay described here. MT-2 cells were infected with either HIV-1 NL4-3 or HIV-1 NL4-3([…]) and incubated in the presence of serial 0.5 log dilutions of test compounds. Three days later, culture supernatants were collected and virus production, as determined by p24 ELISA, was assayed. Percent inhibition was calculated as p24 concentration in compound-treated samples as compared to infected, compound-free controls. Inhibition of viral replication is determined by measuring reduction in HIV p24 present in the culture supernatant, using a Beckman-Coulter p24HIV-1 Ag EIA kit and following the supplied protocol. Absorbance is read on a MRX microplate reader (Dynex Technologies). The EC50 was calculated as the concentration of compound that effected a decrease in the p24 production by infected, compound-treated cells to 50% of that produced by infected, compound-free cells.

## Cc1ccccc1CNC(=O)[C@H]1N(C(=O)[C@@H](O)[C@H](Cc2ccccc2)NC(=O)c2cccc(O)c2C)CC(F)(F)C1(C)C [Example C15, (S)-4,4-Difluoro-1-[(2S,3S)-2-hydroxy-3-(3-hydroxy-2-methyl-benzoylamino)-4-phenyl-butyryl]-3,3-dimethyl-pyrrolidine-2-carboxylic acid 2-methyl-benzylamide]
[1]
  Ki: < 0.1 nM
[2]
  EC50: 25 nM
[3]
  EC50: 57 nM

## Cc1c(O)cccc1C(=O)N[C@@H](Cc1ccccc1)[C@H](O)C(=O)N1CC(F)(F)C(C)(C)[C@H]1C(=O)N[C@H]1CCc2ccccc21 [Example C16, (S)-4,4-Difluoro-1-[(2S,3S)-2-hydroxy-3-(3-hydroxy-2-methyl-benzoylamino)-4-phenyl-butyryl]-3,3-dimethyl-pyrrolidine-2-carboxylic acid (S)-indan-1-ylamide]
[1]
  Ki: < 0.1 nM
[2]
  EC50: 19 nM
[3]
  EC50: 201 nM

## C#CCNC(=O)[C@H]1N(C(=O)[C@@H](O)[C@H](Cc2ccccc2)NC(=O)c2cccc(O)c2C)CC(F)(F)C1(C)C [Example C17, (S)-4,4-Difluoro-1-[(2S,3S)-2-hydroxy-3-(3-hydroxy-2-methyl-benzoylamino)-4-phenyl-butyryl]-3,3-dimethyl-pyrrolidine-2-carboxylic acid prop-2-ynylamide]
[1]
  Ki: < 0.1 nM
[2]
  EC50: 115 nM
[3]
  EC50: 186 nM

## Cc1c(O)cccc1C(=O)N[C@@H](Cc1ccccc1)[C@H](O)C(=O)N1CC(F)(F)C(C)(C)[C@H]1C(=O)NCc1ccc(F)cc1Cl [Example C18, (S)-4,4-Difluoro-1-((2S,3S)-2-hydroxy-3-{[1-(3-hydroxy-2-methyl-phenyl)-methanoyl]-amino}-4-phenyl-butanoyl)-3,3-dimethyl-pyrrolidine-2-carboxylic acid 2-chloro-4-fluoro-benzylamide]
[1]
  Ki: < 0.1 nM
[2]
  EC50: 148 nM
[3]
  EC50: 618 nM

## CCCNC(=O)[C@H]1N(C(=O)[C@@H](O)[C@H](Cc2ccccc2)NC(=O)c2cccc(O)c2C)CC(F)(F)C1(C)C [Example C19, (S)-4,4-Difluoro-1-((2S,3S)-2-hydroxy-3-{[1-(3-hydroxy-2-methyl-phenyl)-methanoyl]-amino}-4-phenyl-butanoyl)-3,3-dimethyl-pyrrolidine-2-carboxylic acid propylamide]
[1]
  Ki: < 0.1 nM
[2]
  EC50: 55 nM
[3]
  EC50: 84 nM

## Cc1c(O)cccc1C(=O)N[C@@H](Cc1ccccc1)[C@H](O)C(=O)N1CC(F)(F)C(C)(C)[C@H]1C(=O)NCC(C)C [Example C21, 4,4-Difluoro-1-[2-hydroxy-3-(3-hydroxy-2-methyl-benzoylamino)-4-phenyl-butyryl]-3,3-dimethyl-pyrrolidine-2-carboxylic acid isobutyl-amide]
[1]
  Ki: < 0.1 nM
[2]
  EC50: 15 nM
[3]
  EC50: 81 nM

## Cc1c(O)cccc1C(=O)N[C@@H](Cc1ccccc1)[C@H](O)C(=O)N1CC(F)(F)C(C)(C)[C@H]1C(=O)NCc1cccs1 [Example C22, (S)-4,4-Difluoro-1-[(2S,3S)-2-hydroxy-3-(3-hydroxy-2-methyl-benzoylamino)-4-phenyl-butyryl]-3,3-dimethyl-pyrrolidine-2-carboxylic acid (thiophen-2-ylmethyl)-amide]
[1]
  Ki: < 0.1 nM
[2]
  EC50: 15 nM
[3]
  EC50: 62 nM

## Cc1c(O)cccc1C(=O)N[C@@H](Cc1ccccc1)[C@H](O)C(=O)N1CC(F)(F)C(C)(C)[C@H]1C(=O)NCC(F)(F)F [Example C23, (S)-4,4-Difluoro-1-[(2S,3S)-2-hydroxy-3-(3-hydroxy-2-methyl-benzoylamino)-4-phenyl-butyryl]-3,3-dimethyl-pyrrolidine-2-carboxylic acid (2,2,2-trifluoro-ethyl)-amide]
[1]
  Ki: < 0.1 nM
[2]
  EC50: 37 nM
[3]
  EC50: 109 nM

## Cc1c(O)cccc1C(=O)N[C@@H](Cc1ccccc1)[C@H](O)C(=O)N1CC(F)(F)C(C)(C)[C@H]1C(=O)N[C@H]1CCOc2ccccc21 [Example C24, (S)-4,4-Difluoro-1-[(2S,3S)-2-hydroxy-3-(3-hydroxy-2-methyl-benzoylamino)-4-phenyl-butyryl]-3,3-dimethyl-pyrrolidine-2-carboxylic acid (S)-1-benzopyran-4-y]
[1]
  Ki: < 0.1 nM
[2]
  EC50: 19 nM
[3]
  EC50: 74 nM

## COc1ccc(CNC(=O)[C@H]2N(C(=O)[C@@H](O)[C@H](Cc3ccccc3)NC(=O)c3cccc(O)c3C)CC(F)(F)C2(C)C)cc1 [Example C25, (S)-4,4-Difluoro-1-[(2S,3S)-2-hydroxy-3-(3-hydroxy-2-methyl-benzoylamino)-4-phenyl-butyryl]-3,3-dimethyl-pyrrolidine-2-carboxylic acid 4-methoxy-benzylamide]
[1]
  Ki: < 0.1 nM
[2]
  EC50: 31 nM
[3]
  EC50: 68 nM

## Cc1c(O)cccc1C(=O)N[C@@H](Cc1ccccc1)[C@H](O)C(=O)N1CC(F)(F)C(C)(C)[C@H]1C(=O)NCc1ccc2c(c1)OCO2 [Example C26, (S)-4,4-Difluoro-1-[(2S,3S)-2-hydroxy-3-(3-hydroxy-2-methyl-benzoylamino)-4-phenyl-butyryl]-3,3-dimethyl-pyrrolidine-2-carboxylic acid (1,3-benzodioxol-5-ylmethyl)-amide]
[1]
  Ki: < 0.1 nM
[2]
  EC50: 76 nM
[3]
  EC50: 131 nM

## Cc1c(O)cccc1C(=O)N[C@@H](Cc1ccccc1)[C@H](O)C(=O)N1COC(C)(C)[C@H]1C(=O)N[C@H]1CCc2ccccc21 [Example C27, (S)-3-((2S,3S)-2-Hydroxy-3-{[1-(3-hydroxy-2-methyl-phenyl)-methanoyl]-amino}-4-phenyl-butanoyl)-5,5-dimethyl-oxazolidine-4-carboxylic acid (S)-indan-1-ylamide]
[1]
  Ki: 0.13 nM
[2]
  EC50: 115 nM
[3]
  EC50: 189 nM

## Cc1c(O)cccc1C(=O)N[C@@H](Cc1ccccc1)[C@H](O)C(=O)N1COC(C)(C)[C@H]1C(=O)N[C@@H]1C=CCCC1 [Example C29, (S)-3-((2S,3S)-2-Hydroxy-3-{[1-(3-hydroxy-2-methyl-phenyl)-methanoyl]-amino}-4-phenyl-butanoyl)-5,5-dimethyl-oxazolidine-4-carboxylic acid (S)-cyclohex-2-enylamide]
[1]
  Ki: 0.18 nM
[2]
  EC50: 142 nM
[3]
  EC50: 1360 nM

## Cc1ccccc1CNC(=O)[C@H]1N(C(=O)[C@@H](O)[C@H](Cc2ccccc2)NC(=O)c2cccc(O)c2C)CSC12CCCC2 [Example C30, 3-(2-Hydroxy-3-{[1-(3-hydroxy-2-methyl-phenyl)-methanoyl]-amino}-4-phenyl-butanoyl)-1-thia-3-aza-spiro [4.4]nonane-4-carboxylic acid 2-methyl-benzamide]
[1]
  Ki: < 0.1 nM
[2]
  EC50: 18 nM
[3]
  EC50: 273 nM

## Cc1ccccc1CNC(=O)[C@H]1N(C(=O)[C@@H](O)[C@H](Cc2ccccc2)NC(=O)c2cccc(O)c2C)CSC12CCCCC2 [Example C31, 3-(2-Hydroxy-3-{[1-(2-methyl-3-hydroxy-phenyl)-methanoyl]-amino}-4-phenyl-butanoyl)-1-thia-3-aza-spiro[4.5]decane-4-carboxylic acid 2-methyl-benzylamide]
[1]
  Ki: 0.17 nM
[2]
  EC50: 31 nM
[3]
  EC50: 1070 nM

## Cc1ccccc1CNC(=O)[C@H]1N(C(=O)[C@@H](O)[C@H](Cc2ccccc2)NC(=O)c2cccc(O)c2C)CSC12CCC2 [Example C32, 7-(2-Hydroxy-3-{[1-(3-hydroxy-2-methyl-phenyl)-methanoyl]-amino}-4-phenyl-butanoyl)-5-thia-7-aza-spiro[3.4]octane-8-carboxylic acid-2-methyl benzylamide]
[1]
  Ki: < 0.1 nM
[2]
  EC50: 9 nM
[3]
  EC50: 190 nM

## CCCNC(=O)[C@H]1N(C(=O)[C@@H](O)[C@H](Cc2ccccc2)NC(=O)c2cccc(O)c2C)CSC12CCCC2 [Example C33, (R)-3-((2S,3S)-2-Hydroxy-3-{[1-(3-hydroxy-2-methyl-phenyl)-methanoyl]-amino}-4-phenyl-butanoyl)-1-thia-3-aza-spiro[4.4]nonane-4-carboxylic acid propylamide]
[1]
  Ki: 0.13 nM
[2]
  EC50: 45 nM
[3]
  EC50: 1270 nM
